Paper PMC4864329, “In vitro and in vivo efficacy, toxicity, bio-distribution and resistance selection of a novel antibacterial drug candidate” (Scientific Reports, 2016)
Where “and” joins values, the source holds several entries; their conditions need not be identical. Identical values can stand only once. Like-named read-outs stand apart in the source and are kept apart here.

Test system: Klebsiella pneumoniae clinical isolates
Format: cell-based
Method: Minimum inhibitory concentrations (MICs) of SET-M33L were determined against 76 clinical isolates of Pseudomonas aeruginosa and 73 clinical isolates of Klebsiella pneumoniae. The isolates were selected on the basis of their resistance phenotypes and major antibiotic resistance determinants, including resistance to colistin and carriage of carbapenemase-encoding genes (Table 1 and supplemental Tables S1 and S2).
MIC values were determined against a large collection of clinical isolates. Most isolates were collected during routine susceptibility testing procedures at the Clinical Microbiology Unit of Careggi University Hospital in Florence, while specific isolates were selected according to their phenotype or genotype (e.g. carriage of carbapenemase-encoding genes, inclusion in epidemic bacterial clones, resistance to colistin) from a collection of isolates already available at Department of Medical Biotechnologies, University of Siena. Detailed features of each strain, including relevant resistance phenotypes and genotypes were reported in supplemental Tables S1 and S2. MICs were determined in triplicate using a standard microdilution assay according to the guidelines of the Clinical and Laboratory Standards Institute[34]. SET-M33L was assayed using concentrations in the range 0.09–11.2 μM (0.5–64 μg/mL); testing was performed using a bacterial inoculum of 5 × 10^4 CFU/well prepared in cation-supplemented Mueller-Hinton broth (MHB) (Becton Dickinson, Franklin Lakes, NJ, USA) in a final volume of 100 μl. Results were recorded after 18–20 h of incubation at 35 °C.

Substance: colistin sulfate
- MIC (isolate SI_K1, CARB, β/I, ESC, FQ, AG, COL, blaNDM): 32 µg/mL
- MIC (isolate SI_K2, CARB, ESC, FQ, AG, blaCTX-M): ≤ 0.5 µg/mL
- MIC (isolate SI_K3, CARB, β/I, ESC, AG, blaVIM): 0.5 µg/mL
- MIC (isolate SI_K4, CARB, β/I, ESC, FQ, blaOXA-48): 0.5 µg/mL
- MIC (isolate SI_K5, CARB, β/I, ESC, FQ, blaOXA-48): 0.5 µg/mL
- MIC (isolate SI_K6, CARB, β/I, ESC, FQ, AG, blaKPC): 0.5 µg/mL
- MIC (isolate SI_K7, CARB, β/I, ESC, FQ, blaKPC): 0.5 µg/mL
- MIC (isolate SI_K8, CARB, β/I, ESC, FQ, AG, blaKPC): ≤ 0.5 µg/mL
- MIC (isolate SI_K9, CARB, β/I, ESC, FQ, AG, blaKPC): 2 µg/mL
- MIC (isolate SI_K10, CARB, β/I, ESC, FQ, COL, blaKPC): > 32 µg/mL
- MIC (isolate SI_K11, CARB, β/I, ESC, FQ, AG, blaKPC): ≤ 0.5 µg/mL
- MIC (isolate SI_K12, phenotype none): ≤ 0.5 µg/mL
- MIC (isolate SI_K13, β/I, ESC, FQ, AG, ESBL): ≤ 0.5 µg/mL
- MIC (isolate SI_K14, phenotype none): ≤ 0.5 µg/mL
- MIC (isolate SI_K15, phenotype none): ≤ 0.5 µg/mL
- MIC (isolate SI_K16, phenotype none): ≤ 0.5 µg/mL
- MIC (isolate SI_K17, CARB, β/I, ESC, FQ, AG, COL, blaKPC): > 32 µg/mL
- MIC (isolate SI_K18, phenotype none): ≤ 0.5 µg/mL
- MIC (isolate SI_K19, ESC, ESBL): ≤ 0.5 µg/mL
- MIC (isolate SI_K20, phenotype none): ≤ 0.5 µg/mL
- MIC (isolate SI_K21, phenotype none): ≤ 0.5 µg/mL
- MIC (isolate SI_K22, phenotype none): ≤ 0.5 µg/mL
- MIC (isolate SI_K23, phenotype none): ≤ 0.5 µg/mL
- MIC (isolate SI_K24, phenotype none): ≤ 0.5 µg/mL
- MIC (isolate SI_K25, phenotype none): ≤ 0.5 µg/mL
- MIC (isolate SI_K26, phenotype none): ≤ 0.5 µg/mL
- MIC (isolate SI_K27, phenotype none): ≤ 0.5 µg/mL
- MIC (isolate SI_K28, β/I, ESC, FQ, AG, ESBL): ≤ 0.5 µg/mL
- MIC (isolate SI_K29, ESC, AG, blaCTX-M): 0.5 µg/mL
- MIC (isolate SI_K30, phenotype none): ≤ 0.5 µg/mL
- MIC (isolate SI_K31, β/I, ESC, FQ, AG, COL, ESBL): 16 µg/mL
- MIC (isolate SI_K32, phenotype none): ≤ 0.5 µg/mL
- MIC (isolate SI_K33, phenotype none): ≤ 0.5 µg/mL
- MIC (isolate SI_K34, phenotype none): ≤ 0.5 µg/mL
- MIC (isolate SI_K35, CARB, β/I, ESC, FQ, AG, blaKPC): ≤ 0.5 µg/mL
- MIC (isolate SI_K36, CARB, β/I, ESC, FQ, AG, COL, blaKPC): > 32 µg/mL
- MIC (isolate SI_K37, phenotype none): ≤ 0.5 µg/mL
- MIC (isolate SI_K38, phenotype none): ≤ 0.5 µg/mL
- MIC (isolate SI_K39, phenotype none): ≤ 0.5 µg/mL
- MIC (isolate SI_K40, CARB, β/I, ESC, FQ, AG, COL, blaKPC): > 32 μg/mL and > 24 μM
- MIC (isolate SI_K41, β/I, ESC, FQ, AG, ESBL): ≤ 0.5 μg/mL and ≤ 0.4 μM
- MIC (isolate SI_K42, phenotype none): ≤ 0.5 μg/mL and ≤ 0.4 μM
- MIC (isolate SI_K43, phenotype none): ≤ 0.5 μg/mL and ≤ 0.4 μM
- MIC (isolate SI_K44, phenotype none): ≤ 0.4 μM and ≤ 0.5 μg/mL
- MIC (isolate SI_K45, FQ): ≤ 0.5 μg/mL and ≤ 0.4 μM
- MIC (isolate SI_K46, β/I): ≤ 0.5 μg/mL and ≤ 0.4 μM
- MIC (isolate SI_K47, phenotype none): ≤ 0.5 μg/mL and ≤ 0.4 μM
- MIC (isolate SI_K48, phenotype none): ≤ 0.5 μg/mL and ≤ 0.4 μM
- MIC (isolate SI_K49, phenotype none): ≤ 0.5 μg/mL and ≤ 0.4 μM
- MIC (isolate SI_K50, phenotype none): ≤ 0.5 μg/mL and ≤ 0.4 μM
- MIC (isolate SI_K51, phenotype none): ≤ 0.5 μg/mL and ≤ 0.4 μM
- MIC (isolate SI_K52, phenotype none): ≤ 0.5 μg/mL and ≤ 0.4 μM
- MIC (isolate SI_K53, β/I, ESC, FQ, ESBL): ≤ 0.5 μg/mL and ≤ 0.4 μM
- MIC (isolate SI_K54, phenotype none): ≤ 0.5 μg/mL and ≤ 0.4 μM
- MIC (isolate SI_K55, β/I, ESC, FQ, AG, ESBL): ≤ 0.5 μg/mL and ≤ 0.4 μM
- MIC (isolate SI_K56, phenotype none): ≤ 0.5 μg/mL and ≤ 0.4 μM
- MIC (isolate SI_K57, β/I, FQ): ≤ 0.5 μg/mL and ≤ 0.4 μM
- MIC (isolate SI_K58, phenotype none): ≤ 0.5 μg/mL and ≤ 0.4 μM
- MIC (isolate SI_K59, phenotype none): ≤ 0.5 μg/mL and ≤ 0.4 μM
- MIC (isolate SI_K60, phenotype none): ≤ 0.5 μg/mL and ≤ 0.4 μM
- MIC (isolate SI_K61, CARB, β/I, ESC, FQ): ≤ 0.5 μg/mL and ≤ 0.4 μM
- MIC (isolate SI_K62, CARB, β/I, ESC, FQ, AG, ESBL): ≤ 0.5 μg/mL and ≤ 0.4 μM
- MIC (isolate SI_K63, β/I, ESC, FQ, AG, ESBL): ≤ 0.5 μg/mL and ≤ 0.4 μM
- MIC (isolate SI_K64, phenotype none): ≤ 0.5 μg/mL and ≤ 0.4 μM
- MIC (isolate SI_K65, phenotype none): ≤ 0.5 μg/mL and ≤ 0.4 μM
- MIC (isolate SI_K66, β/I, ESC, FQ, AG, ESBL): ≤ 0.5 μg/mL and ≤ 0.4 μM
- MIC (isolate SI_K67, β/I, ESC, FQ, AG, ESBL): ≤ 0.5 μg/mL and ≤ 0.4 μM
- MIC (isolate SI_K68, phenotype none): ≤ 0.5 μg/mL and ≤ 0.4 μM
- MIC (isolate SI_K69, β/I, ESC, FQ, AG, ESBL): ≤ 0.5 μg/mL and ≤ 0.4 μM
- MIC (isolate SI_K70, β/I, ESC, FQ): ≤ 0.5 μg/mL and ≤ 0.4 μM
- MIC (isolate SI_K71, CARB, β/I, ESC, FQ, blaKPC): ≤ 0.5 μg/mL and ≤ 0.4 μM
- MIC (isolate SI_K72, CARB, β/I, ESC, FQ, AG, COL, blaNDM): > 32 μg/mL and > 24 μM
- MIC (isolate SI_K73, CARB, ESC, FQ, AG, blaCTX-M): ≤ 0.5 μg/mL and ≤ 0.4 μM
